Read-outs that look alike come from different tables or passages of the source.
Key:
Sarcina lutea = assay: Standard agar diffusion (12.5 cm disc) test, Sarcina lutea; assay type: cell-based; conditions: for zone of inhibition at 1000 µg/mL: Micrococcus luteus
Description: (§1) When tested on a standard agar diffusion (12.5 cm disc) test at a concentration of 1 mg/ml compound (45) gave the following zones of inhibition in mm:
(§2) The antibacterial activity of compounds (46), (47), (48), (49) and (50) on a standard agar diffusion (12.5 cm disc) test at a concentration of 1 mg/ml is shown in the following table: […]

Staphylococcus aureus = assay: Standard agar diffusion (12.5 cm disc) test, Staphylococcus aureus; assay type: cell-based; conditions: for zone of inhibition at 1000 µg/mL: Staphylococcus aureus
Description: as §1, §2

S. lutea [1] = assay: Standard dipped disc agar diffusion assay, S. lutea; assay type: cell-based; conditions: Micrococcus luteus
Description: In vitro antibacterial testing data, as measured by standard dipped disc agar diffusion assays and Minimum Inhibitory Concentration (MIC) determinations are as follows:
A 0.5 inch disc dipped into a methanol solution of chloride (6b) at a concentration of 1 mg/ml gave a zone of inhibition of 30 mm when spotted on an agar tray seeded with S. lutea.

S. aureus [2] = assay: Standard dipped disc agar diffusion assay, S. aureus; assay type: cell-based; conditions: Staphylococcus aureus; 1 mg/ml, 0.5 in. disc
Excerpt: In vitro antibacterial testing data, as measured by standard dipped disc agar diffusion assays and Minimum Inhibitory Concentration (MIC) determinations are as follows: […]

S. aureus [3] = assay: S. aureus SQ-Mouse CD50; assay type: in vivo; conditions: Staphylococcus aureus, sc
C. perfringens = conditions: cited from earlier work
B. fragilis = conditions: cited from earlier work
Mycobacterium avium = conditions: cited from earlier work
K. pneumoniae = conditions: cited from earlier work
S. lutea [4] = conditions: cited from earlier work
[5] = read-out: Agar Diffusion zone, S. lutea

`COC1CC2C=CC3C4OC2(C(C)=CC(C)C(C(C)=NNC(N)=O)OC1=O)C3C(O)C(C)C4OC(=O)c1ccc[nH]1` (stereo not shown) [Compound 48, 18-Deoxy-18-semicarbazononargenicin A1] showed a zone of inhibition at 1000 µg/mL (Sarcina lutea; read-out: Zone size, S. lutea) of 35 mm and a zone of inhibition at 1000 µg/mL (Staphylococcus aureus; read-out: Zone size, S. aureus) of 28 mm.
`COC1CC2C=CC3C4OC2(C(C)=CC(C)C(C(C)O)OC1=O)C3C(O)C(C)C4OC(=O)c1ccc[nH]1` (stereo not shown) [Compound 45, 18-Epinargenicin A1] showed a zone of inhibition at 1000 µg/mL (Sarcina lutea; read-out: zones of inhibition, Sarcina lutea) of 35 mm and a zone of inhibition at 1000 µg/mL (Staphylococcus aureus; read-out: zones of inhibition, Staphylococcus aureus) of 26 mm.
For `COC1CC2C=CC3C4OC2(C(C)=CC(C)C(C(C)=NO)OC1=O)C3C(O)C(C)C4OC(=O)c1ccc[nH]1` (single isomer, unassigned; isomer a) [Compound 46, 18-Deoxy-18-oximinonargenicin A1, Isomer A], the zone of inhibition at 1000 µg/mL (Sarcina lutea; read-out: Zone size, S. lutea) was 37 mm and the zone of inhibition at 1000 µg/mL (Staphylococcus aureus; read-out: Zone size, S. aureus) was 30 mm.
For `COC1CC2C=CC3C4OC2(C(C)=CC(C)C(C(C)Cl)OC1=O)C3C(O)C(C)C4OC(=O)c1ccc[nH]1` (stereo not shown) [Compound 24, 18-Chloro-18-deoxynargenicin A1], the zone of inhibition at 1000 µg/mL (S. lutea [1]; [5]) was 31 mm, the zone of inhibition at 1000 µg/mL (S. aureus [2]) was 29 mm and the ED50 (S. aureus [3]) was 107 mg/kg.
For `CCC1OC(=O)C(OC)CC2C=CC3C4OC2(C(C)=CC1C)C3C(O)C(C)C4OC(=O)c1ccc[nH]1` (stereo not shown) [Compound 32, 18-Deoxynargenicin A1], the zone of inhibition at 1000 µg/mL (S. lutea [1]; [5]) was 32 mm, the zone of inhibition at 1000 µg/mL (S. aureus [2]) was 29 mm and the ED50 (S. aureus [3]) was over 100 mg/kg.
In the case of `COC1CC2C=CC3C4OC2(C(C)=CC(C)C(C(C)=NO)OC1=O)C3C(O)C(C)C4OC(=O)c1ccc[nH]1` (single isomer, unassigned; isomer b) [Compound 47, 18-Deoxy-18-oximinonargenicin A1, Isomer B], the “Zone size, S. lutea” value (Sarcina lutea; 1 mg/ml, 12.5 cm disc, table 6) is reported as 37 mm and the “Zone size, S. aureus” value (Staphylococcus aureus; 1 mg/ml, 12.5 cm disc, table 6) is reported as 30 mm.
`COC1CC2C=CC3C4OC2(C(C)=CC(C)C(C(C)O)OC1=O)C3C(O)C(C)C4OC(=O)c1ccc[nH]1` (stereo not shown) [Nargenicin A1, nargenicin A1, reference compound] showed an ED50 (S. aureus [3]) of 17 to 20 mg/kg.
`COC1CC2C=CC3C4OC2(C(C)=CC(C)C(C(C)Cl)OC1=O)C3C(O)C(C)C4O` (stereo not shown) [Compound 35, 18-Chloro-18-deoxynodusmicin] showed a zone of inhibition at 1000 µg/mL (S. lutea [1]; 1 mg/ml, 0.5 in. disc, read-out: Agar Diffusion zone, S. lutea) of 30 mm and a zone of inhibition at 1000 µg/mL (S. lutea [1]; 0.5 inch disc dipped into methanol solution, 1 mg/ml, read-out: zone of inhibition, S. lutea) of 30 mm.
In the case of `COC1CC2C=CC3C4OC2(C(C)=CC(C)C(C(C)=O)OC1=O)C3C(O)C(C)C4OC(=O)c1ccc[nH]1` (stereo not shown) [Compound 25, 18-Deoxy-18-oxonargenicin A1], the zone of inhibition at 1000 µg/mL (S. lutea [1]; [5]) is reported as 41 mm, the zone of inhibition at 1000 µg/mL (S. aureus [2]) is reported as 35 mm and the ED50 (S. aureus [3]) is reported as 152 mg/kg.
In the case of `CON=C(C)C1OC(=O)C(OC)CC2C=CC3C4OC2(C(C)=CC1C)C3C(O)C(C)C4OC(=O)c1ccc[nH]1` (single isomer, unassigned; isomer a) [Compound 49, 18-Deoxy-18-methoximinonargenicin A1, Isomer A], the zone of inhibition at 1000 µg/mL (Sarcina lutea; 1 mg/ml, 12.5 cm disc, table 6, read-out: Zone size, S. lutea) is reported as 35 mm and the zone of inhibition at 1000 µg/mL (Staphylococcus aureus; 1 mg/ml, 12.5 cm disc, table 6, read-out: Zone size, S. aureus) is reported as 30 mm.
In the case of `COC1CC2C=CC3C4OC2(C(C)=CC(C)C(C(C)N=[N+]=[N-])OC1=O)C3C(O)C(C)C4OC(=O)c1ccc[nH]1` (stereo not shown) [Compound 29, 18-Azido-18-deoxynargenicin A1], the zone of inhibition at 1000 µg/mL (S. lutea [1]; [5]) is reported as 33 mm and the zone of inhibition at 1000 µg/mL (S. aureus [2]) is reported as 26 mm.
For `COC1CC2C=CC3C4OC2(C(C)=CC(C)C(C(C)O)OC1=O)C3C(O)C(C)C4O` (single isomer, unassigned) [nodusmicin], the “activity against C. perfringens” value (C. perfringens) is given as “active”, the “activity against B. fragilis” value (B. fragilis) is given as “active” and the “activity against Mycobacterium avium” value (Mycobacterium avium) is given as “active”. For the same compound, the “activity against K. pneumoniae” value (K. pneumoniae) was “active” and the “activity against S. lutea” value (S. lutea [4]) was “active”.
With `CON=C(C)C1OC(=O)C(OC)CC2C=CC3C4OC2(C(C)=CC1C)C3C(O)C(C)C4OC(=O)c1ccc[nH]1` (single isomer, unassigned; isomer b) [Compound 50, 18-Deoxy-18-methoximinonargenicin A1, Isomer B] the “Zone size, S. lutea” value (Sarcina lutea; 1 mg/ml, 12.5 cm disc, table 6) was 35 mm and the “Zone size, S. aureus” value (Staphylococcus aureus; 1 mg/ml, 12.5 cm disc, table 6) was 30 mm.
